Laboratory results as given in US10208067B2, “Compounds for treating spinal muscular atrophy” (Hoffmann-La Roche Inc., priority 2015, dated 2019).
Read-outs that look alike come from different tables or passages of the source.

Legend:
[1] = system: SMN protein in SMA patient fibroblast cells (GM03813); assay: SMN protein assay (HTRF) in cultured cells; format: cell-based; details: Homo sapiens, SMA Type 1 patient fibroblasts, 48 hours; for EC (1.5-fold): concentration producing 1.5 times SMN protein vs vehicle, read-out: EC1.5x SMN protein; for maximal fold induction: relative to vehicle control, read-out: max. fold increase of SMN protein
Experimental: The SMN HTRF (homogeneous time resolved fluorescence) assay is used to quantify the level of SMN protein in SMA patient fibroblast cells treated with test compounds. Materials used and respective sources are listed below in Table 4.
Cells are thawed and cultured in DMEM-10% FBS for 72 hours. Cells are trypsinized, counted and re-suspended to a concentration of 25,000 cells/mL in DMEM-10% FBS. The cell suspensions are plated at 5,000 cells per well in a 96 well microtiter plate and incubated for […]. […] 1 μL of test compound solution is transferred to cell-containing wells and cells are incubated for 48 hours in a cell culture incubator (37° C., 5% CO2, 100% relative humidity). Triplicate samples are set up for each test compound concentration. After 48 hours, the supernatant is removed from the wells and 25 μL of the RIPA lysis buffer, containing protease inhibitors, is added to the wells and incubated with shaking at room temperature for 1 hour. 25 μL of the diluent is added and then 35 μL of the resulting lysate is transferred to a 384-well plate, where each well contains 5 μL of the antibody solution (1:100 dilution of anti-SMN d2 and anti-SMN cryptate in SMN reconstitution buffer). The plate is centrifuged for 1 minute to bring the solution to the bottom of the wells, then incubated overnight at room temperature. Fluorescence for each well of the plate at 665 nm and 620 nm is measured on an EnVision multilabel plate reader (Perkin-Elmer).
The normalized fluorescence signal is calculated for each sample, Blank and vehicle control well by dividing the signal at 665 nm by the signal at 620 nm. Normalizing the signal accounts for possible fluorescence quenching due to the matrix effect of the lysate. The ΔF value (a measurement of SMN protein abundance as a percent value) for each sample well is calculated by subtracting the normalized average fluorescence for the Blank control wells from the normalized fluorescence for each sample well, then dividing this difference by the normalized average fluorescence for the Blank control wells and multiplying the resulting value by 100. The ΔF value for each sample well represents the SMN protein abundance from test compound-treated samples. The ΔF value for each sample well is divided by the ΔF value for the vehicle control wells to calculate the fold increase in SMN protein abundance relative to the vehicle control. Table 5 provides EC1-5× concentrations for SMN protein expression that was obtained from the 7-point concentration data generated according to the above procedure for particular compounds of the present invention.
Table 6 provides the maximum fold increase of SMN protein that was obtained from the 7-point concentration data generated according to the above procedure for particular compounds of the present invention

[2] = system: full length SMN2 minigene mRNA (HEK293H cells stably transfected with SMN2-A minigene); assay: RT-qPCR assay for SMN2 minigene pre-mRNA splicing in cultured cells; format: cell-based; details: Homo sapiens, HEK293-H, 24 hours
[3] = Table 3 (title: production of full length SMN2 minigene mRNA), read-out: EC1.5x SMN protein

Row | SMILES | EC (1.5-fold) [1] [µM] | maximal fold induction [1] | EC (1.5-fold) [2, 3] [µM] | EC (1.5-fold) ([2]; concentration increasing full length SMN2 minigene mRNA 1.5-fold vs vehicle, read-out: EC1.5x minigene) [µM]
1 | Cc1nc2ccc(-c3cc(=O)n4cc(N5CCNC6(CC6)C5)ccc4n3)nn2n1 [Example 44, 7-(4,7-diazaspiro[2.5]octan-7-yl)-2-(2-methyl-[1,2,4]triazolo[1,5-b]pyridazin-6-yl)pyrido[1,2-a]pyrimidin-4-one] | 0.265 | 2.02 | 0.0578 | –
2 | Cc1nc2ccc(-c3cc(=O)n4cc(N5CCN[C@@H](C)C5)ccc4n3)nn2n1 [Example 18, 7-[(3S)-3-methylpiperazin-1-yl]-2-(2-methyl-[1,2,4]triazolo[1,5-b]pyridazin-6-yl)pyrido[1,2-a]pyrimidin-4-one] | 0.0515 | 1.72 | 0.0176 | –
3 | Cc1nc2ncc(-c3cc(=O)n4cc(N5CC[C@@H](N(C)C)C5)ccc4n3)cn2n1 [Example 3, 7-[(3R)-3-(dimethylamino)pyrrolidin-1-yl]-2-(2-methyl-[1,2,4]triazolo[1,5-a]pyrimidin-6-yl)pyrido[1,2-a]pyrimidin-4-one] | 0.52 | 1.79 | – | 0.0452
4 | Cc1nc2ccc(-c3cc(=O)n4cc(N5CCNCC5)ccc4n3)nn2n1 [Example 19, 7-piperazin-1-yl-2-(2-methyl-[1,2,4]triazolo[1,5-b]pyridazin-6-yl)pyrido[1,2-a]pyrimidin-4-one] | 0.0392 | 1.81 | 0.009 | –
5 | Cc1nc2ccc(-c3cc(=O)n4cc(N5CCN(C6COC6)CC5)cc(C)c4n3)nn2n1 [Example 31, 9-methyl-7-[4-(oxetan-3-yl)piperazin-1-yl]-2-(2-methyl-[1,2,4]triazolo[1,5-b]pyridazin-6-yl)pyrido[1,2-a]pyrimidin-4-one] | 1.31 | 1.75 | 0.13 | –
